Test results: patent US8022235B2, “Compositions of phospholipid ether boronic acids and esters and methods for their synthesis and use” (Cellectar, Inc., priority 2007, dated 2011)
“Also recorded” adds a separate entry of the source.

How the values were obtained:
[1] = test system: human PC-3 prostate tumor xenografts; assay: Scintigraphy, microPET and tissue distribution in PC-3 tumor model; type: in vivo, SCID mice; details: metastatic prostate tumor model, scintigraphy, FIG. 9
Melanoma A-375 = assay: Imaging and tissue distribution, tumor model; type: in vivo, Nude Mouse; details: Adenocarcinoma
Hepatocellular Carcinoma = assay: Imaging and tissue distribution, tumor model; type: in vivo, Spontaneous TGF-α mouse; details: Adenocarcinoma
Source text: Imaging and tissue distribution studies performed in mouse models aimed at determining the uptake characteristics in a wide variety of tumor models are summarized in Table 1, below.

animal tumor models = details: radioiodinated analogs, xenograft and spontaneous tumor rodent models, previous reports; cited from earlier work
[2] = test system: mouse intestinal adenocarcinoma model; assay: Therapeutic responses at imaging doses, aggressive intestinal model; type: in vivo; details: 12 days following administration, ^125I-labeled
Source text: (§1) During the course of mouse tumor uptake and retention studies with “imaging” doses (15-20 μCi/20 g mouse) of ^125I-labeled NM404, several apparent therapeutic responses have been observed (unpublished results). […] Some of these animals also lost all hair above larger mammary tumors at around 8 days after injection. Moreover, these mice also get intestinal tumors and usually suffer from intestinal bleeding resulting in severe anemia, which renders their feet white. […] Another compelling example of tumor regression is illustrated in FIG. 13. Two litter mates each received SCC1 and SCC6 xenografts in their left and right flanks, respectively. One mouse received a single injection of ^125I-NM404 (20 μCi). […] These coincidental findings were reconfirmed in two separate age-matched groups each involving more than 6 mice.

Ovarian HTB-77 = assay: Imaging and tissue distribution, tumor model; type: in vivo, Nude Mouse; details: Adenocarcinoma
Cervical = assay: Imaging and tissue distribution, tumor model; type: in vivo, Spontaneous Mouse; details: Adenocarcinoma
Min Mouse Intestinal = assay: Imaging and tissue distribution, tumor model; therapeutic responses at imaging doses; type: in vivo
Source text: as §1

Mammary MCF-7 = assay: Imaging and tissue distribution, tumor model; type: in vivo, Rat; details: Adenocarcinoma
Lung A-549 (NSCLC) = assay: Imaging and tissue distribution, tumor model; type: in vivo, SCID Mouse; details: Adenocarcinoma
[3] = test system: spontaneous murine lung tumors; assay: Bioscan imaging of spontaneous lung tumor; type: in vivo, ApcMin mouse; details: 125I-NM404, image 4 days post injection, 2 mm tumor
Prostate MatLyLu = assay: Gamma camera scintigraphy screen in Dunning R3327 (MAT LyLu) prostate cancer model; type: in vivo, Copenhagen rats
Procedure: The avidity of PLE and APC analogs to localize in tumors was evaluated in several animal models. The PC-3 model represents a human tumor cell line that was used to determine the target (tumor) to non-target ratio of NM404 and NM412 in head to head comparison in order to select a candidate for an initial human pharmacokinetic trial in prostate cancer patients. The MatLyLu (Dunning R3327 rat) model, a rat prostate tumor line, was used specifically to screen 9 specific analogs prior to entering them into control for dosimetry and tumor-bearing animals for determining tumor/background ratios. Finally, the Walker-256 carcinosarcoma model was used for quantitative tissue distribution purposes.
In order to expedite the screening process and minimize the number of tumor bearing animals utilized in multiple time point tissue distribution studies, new radioiodinated homologs were imaged by gamma camera scintigraphy in the rat Dunning […] (MAT LyLu strain) prostate cancer model. Thus, male Copenhagen rats received a subcutaneous injection of MAT LyLu cells (1×10^6 cells) in the thigh 10-14 days prior to injection of the radioiodinated PLE analogs (30-40 μCi) in 2% Tween-20 solution. Gamma camera images were obtained at multiple time points including 24 and 48 hours post injection. […] Tissue distribution of radioactivity in rats bearing Walker-256 carcinosarcoma was assessed at various time intervals following intravenous administration of the radioiodinated chain length homologs. The first group of compounds that was tested included three alkylphosphocholines: a shorter chain analog with seven carbons NM396 and two analogs with a longer chain length, 13 (NM397, C15 alkyl chain length) and 1 (NM404, C18 alkyl chain length).
In order to decrease liver uptake and prolong the plasma phase, the inventors examined 9 structural analogs of NM324 to identify agents that would display improved tumor-to-background tissue ratios with decreased liver uptake. The new PLE analogs were synthesized and radiolabeled with ^125I for initial image analysis in Copenhagen rats bearing Dunning R3327 prostate tumors. […] NM404 was therefore selected to undergo further imaging and biodistribution analysis in a variety of animal-tumor models.

Adrenal H-295 = assay: Imaging and tissue distribution, tumor model; type: in vivo, SCID Mouse; details: Adenocarcinoma

Q: What does the source list for `C[N+](C)(C)CCOP(=O)([O-])OCCCCCCCCCCCCCCCCCCc1ccc(I)cc1` [NM404, 18-(p-iodophenyl)-octadecyl phosphocholine]?
A: localization in lymph node metastases [1]: localize in lymph node metastases; Uptake (Melanoma A-375): Yes; Uptake (Hepatocellular Carcinoma): Yes; selective retention by tumors (animal tumor models): selectively retained by a variety of human and animal tumors; intestinal tumors at dissection [2]: most, if not all, of the expected intestinal tumors were gone; Uptake (Ovarian HTB-77): Yes; Uptake (Cervical): Yes; Uptake (Min Mouse Intestinal; Adenocarcinoma): Yes; survival vs untreated litter mates (Min Mouse Intestinal; after 21 days, both intestinal models): easily outlived their untreated litter mates; feet color (anemia from intestinal bleeding) (Min Mouse Intestinal; around 5 days after a single injection, ^125I-labeled, 15-20 μCi/20 g mouse): reverted to a pink color; intestinal tumors remaining at dissection (Min Mouse Intestinal; of the expected 20 or so, ^125I-labeled, 15-20 μCi/20 g mouse): only a very few, if any; Uptake (Mammary MCF-7): Yes; Uptake (Lung A-549 (NSCLC)): Yes; uptake / retention in tumor [3]: retained in spontaneous murine lung tumors; also recorded: intense uptake; tumor visualization by gamma camera scintigraphy (Prostate MatLyLu; 24 and 48 hours after injection): readily visualized; liver activity (Prostate MatLyLu; 125I-labeled, initial image screen, compared with NM324): much lower liver activity; Uptake (Prostate MatLyLu; Adenocarcinoma): Yes; duration of tumor retention (Prostate MatLyLu; initial screen, FIG. 7): over 20 days; Uptake (Adrenal H-295): Yes
